The text below walks through data of patent publication US9481876B2, “Cathepsin L inhibitors and probes comprising vinyl sulfonate moiety and methods of using same” (Research Foundation of the City University of New York, priority 2014, dated 2016).

Series [1] has as its target T1, recombinant human cathepsin L (Homo sapiens, UniProt P07711).
T1 sequence (P07711 18-333 limits assumed): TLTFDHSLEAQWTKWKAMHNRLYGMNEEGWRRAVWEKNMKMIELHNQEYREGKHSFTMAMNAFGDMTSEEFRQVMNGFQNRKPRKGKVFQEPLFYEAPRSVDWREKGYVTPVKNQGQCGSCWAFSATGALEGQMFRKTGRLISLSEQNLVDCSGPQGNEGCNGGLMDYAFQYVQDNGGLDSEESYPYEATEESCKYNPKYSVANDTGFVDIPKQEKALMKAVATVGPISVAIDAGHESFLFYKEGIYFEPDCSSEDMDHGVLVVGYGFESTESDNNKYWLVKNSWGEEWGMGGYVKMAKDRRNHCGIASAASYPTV
The experiment in a line: initial inhibitory screen of precursors against recombinant human cathepsin L. The class given is biochemical. As to conditions: 10 μM. As to the method: An initial inhibitory screen of various precursors (see FIG. 3A and FIG. 3B) was performed at 10 μM against recombinant human cathepsin L. The percent inhibition of each precursor is shown below its corresponding precursor in FIG. 3A and FIG. 3B. Precursor 301 was identified as a lead precursor with a 95±3% inhibition. In some embodiments, one or more of the 2, 3, 5 and/or 6 positions are occupied by an aryl group. Examples of suitable aryl groups include NHPh, OPh or homologs thereof.

Series [2] has as its target T2, active recombinant human cathepsin L (Homo sapiens, UniProt P07711).
T2 construct: active recombinant human cathepsin L
Put plainly: inhibition and inactivation kinetics of cathepsin L, hydrolysis of fluorescent substrate Z-Phe-Arg-(7-Amino-4-methylcoumarin). It is filed as biochemical. The text has this:
Based on this initial inhibitory screen compound 100 (FIG. 1), was proposed and successfully synthesized from precursor 301 using a multi-step synthetic methodology (FIG. 4A and FIG. 4B). […] FIG. 5 depicts a progress curve for cathepsin L-catalyzed hydrolysis of fluorescent substrate, Z-Phe-Arg-(7-Amino-4-methylcoumarin) with various concentration of compound 100. […] The dose-dependent progress curves were utilized to obtain the second order cathepsin L inactivation rate constant (kinact). […] The mode of inhibition was irreversible because no significant recovery of enzyme activity could be achieved, even after a very large dilution of inactivated reaction mixture.
(§1) This panel of enzymes included cysteine cathepsins, an aspartyl cathepsin, a serine cathepsin, a cysteine containing enzyme PTP, and a serine protease. The second order inactivation rate constants were thus determined by performing inactivation kinetics under a pseudo-first order condition (Table 1). […] Furthermore, no reactivity was observed against other panel of enzymes (e.g. aspartyl cathepsin D, serine cathepsin G, and a low pKa cysteine containing enzyme hPTP1B, and serine protease trypsin). A remarkable selectivity profile observed for compound 100 in these experiments is noteworthy, and thus is thought to lend itself well for the development of cathepsin L probes.
(§2) Table 1 depicts second order enzyme inactivation rate constants (kinact) of compound 100 against a panel of closely-related enzymes. Relative Selectivity Factor (RSF)=kinact (Cathepsin L)/kinact (other enzyme); NI*=no inhibition at 0.1 mM of compound 100 in 1 h, NA**=Not Applicable.

The next series deals with T3, Cathepsin K (Homo sapiens, UniProt P43235).
T3 sequence (P43235 115-329): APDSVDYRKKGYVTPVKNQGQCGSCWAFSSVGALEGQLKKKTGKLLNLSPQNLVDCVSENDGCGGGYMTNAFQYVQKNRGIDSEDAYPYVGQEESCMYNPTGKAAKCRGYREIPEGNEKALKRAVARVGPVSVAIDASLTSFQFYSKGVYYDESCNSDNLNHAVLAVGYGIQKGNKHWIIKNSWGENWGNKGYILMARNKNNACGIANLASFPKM
The experiment in a line: selectivity panel inactivation kinetics, Cathepsin K. It is filed as biochemical. As to conditions: kinact (Cathepsin L)/kinact (Cathepsin K); fold.
Description: as §1, §2

A further series deals with Cathepsin B (Homo sapiens, UniProt P07858). The experiment in a line: selectivity panel inactivation kinetics, Cathepsin B. The class given is biochemical. As to conditions: kinact (Cathepsin L)/kinact (Cathepsin B); fold.
Description: as §1, §2

The target in a further series is Cathepsin S (Homo sapiens, UniProt P25774). The experiment in a line: selectivity panel inactivation kinetics, Cathepsin S. The class given is biochemical. The settings on record: kinact (Cathepsin L)/kinact (Cathepsin S); fold.
Sequence of Cathepsin S (P25774 115-331, species assumed): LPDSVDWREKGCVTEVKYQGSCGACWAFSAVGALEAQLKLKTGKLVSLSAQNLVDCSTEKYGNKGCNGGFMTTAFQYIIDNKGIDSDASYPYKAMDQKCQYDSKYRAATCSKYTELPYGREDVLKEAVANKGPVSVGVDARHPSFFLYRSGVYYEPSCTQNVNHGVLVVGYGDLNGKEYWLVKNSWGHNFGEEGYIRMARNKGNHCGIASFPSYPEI
Description: as §1, §2

The target in the next series is Cathepsin D (Homo sapiens, UniProt P07339). Put plainly: selectivity panel inactivation kinetics, Cathepsin D. The settings on record: aspartyl cathepsin D. The class given is biochemical.
Sequence of Cathepsin D (P07339 65-412, species assumed): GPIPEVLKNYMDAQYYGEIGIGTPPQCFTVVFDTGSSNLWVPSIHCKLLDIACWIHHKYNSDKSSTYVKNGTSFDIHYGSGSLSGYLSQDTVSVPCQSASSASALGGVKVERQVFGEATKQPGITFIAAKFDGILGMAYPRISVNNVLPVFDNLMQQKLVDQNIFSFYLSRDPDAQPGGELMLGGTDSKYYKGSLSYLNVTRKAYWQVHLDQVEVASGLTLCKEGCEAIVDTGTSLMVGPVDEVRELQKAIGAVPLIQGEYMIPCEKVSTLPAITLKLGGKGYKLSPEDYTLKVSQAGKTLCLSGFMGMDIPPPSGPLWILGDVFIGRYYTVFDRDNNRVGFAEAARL
Description: as §1, §2

For another series, the target named is T4, Cathepsin G (Homo sapiens, UniProt P08311).
T4 sequence (P08311 21-244): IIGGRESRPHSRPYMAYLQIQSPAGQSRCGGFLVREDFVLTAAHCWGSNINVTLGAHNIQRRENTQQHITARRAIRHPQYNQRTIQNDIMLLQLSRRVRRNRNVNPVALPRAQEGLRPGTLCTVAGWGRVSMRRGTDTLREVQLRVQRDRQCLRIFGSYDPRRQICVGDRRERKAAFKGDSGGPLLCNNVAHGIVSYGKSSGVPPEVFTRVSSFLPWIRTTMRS
The experiment in a line: selectivity panel inactivation kinetics, Cathepsin G. The class given is biochemical. The settings on record: serine cathepsin G.
Description: as §1, §2

In a further series the target is T5, hPTP1B (Homo sapiens, UniProt P18031).
T5 sequence (P18031 1-435): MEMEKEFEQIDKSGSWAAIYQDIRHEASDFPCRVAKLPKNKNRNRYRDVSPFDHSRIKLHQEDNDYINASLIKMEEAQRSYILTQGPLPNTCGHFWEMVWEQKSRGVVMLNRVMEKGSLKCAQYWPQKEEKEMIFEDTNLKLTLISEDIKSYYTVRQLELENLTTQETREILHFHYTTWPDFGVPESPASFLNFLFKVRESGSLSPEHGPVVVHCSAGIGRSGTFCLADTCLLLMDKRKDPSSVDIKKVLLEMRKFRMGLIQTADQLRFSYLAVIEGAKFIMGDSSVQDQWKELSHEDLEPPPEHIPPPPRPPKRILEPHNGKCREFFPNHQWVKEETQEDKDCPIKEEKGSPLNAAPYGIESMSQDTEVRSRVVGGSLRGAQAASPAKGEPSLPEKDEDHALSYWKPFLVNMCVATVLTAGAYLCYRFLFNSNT
Put plainly: selectivity panel inactivation kinetics, hPTP1B. It is filed as biochemical.
Description: as §1, §2

In another series the test system is Trypsin. The experiment in a line: selectivity panel inactivation kinetics, Trypsin. It is filed as biochemical. The settings on record: serine protease trypsin.
Description: as §1, §2

For series [3], the system named is intracellular cathepsin L activity in MDA-MB-231 cells. Put plainly: intracellular cathepsin L activity in MDA-MB-231 cells with cell-permeable fluorescent substrate. It is filed as cell-based. The text has this:
Cell-specific and tissue-specific microenvironments are highly dynamic, and can have a dramatic impact on enzymatic activities and their in vivo function. A direct quantitative reporter of cathepsin L activity in living cancer cells is more desirable for dissecting its role in promoting metastatic cancer. Thus an activity-dependent small molecule probe with desirable cell permeability is urgently needed. […] This cell line is known to overexpress cathepsin L, thereby promoting invasion. A commercial cell-permeable fluorescent substrate of cathepsin L (Enzo LifeSciences, Inc.) was utilized to assess the intracellular inhibitory efficacy of compound 100.
Specifically, the effect of cathepsin L inhibitor 100 on intracellular cathepsin L activity in metastatic breast cancer MDA-MB-231 cell line was examined by fluorescence. Control cells and cells exposed to compound 100 were incubated with (a) vehicle (DMSO 0.05%). The non-control cells were also incubated with compound 100 (750 nM) overnight (22 h). […] Bright-field, fluorescence and merged images were obtained. […] The results are representative of three independent experiments. The effectiveness of cathepsin L inhibitor 100 was also evaluated using a functional wound-healing assay (FIG. 6A to 6F).

Series [4] deals with MDA-MB-231 breast cancer cells. The experiment in a line: wound healing assay, cell migration. It is filed as cell-based. As to conditions: MDA-MB-231 cells, 750 nM, 0, 7 and 22 hrs. The procedure: MDA-MB-231 cells were grown in an eight-well glass dish overnight before treating with DMSO (control, 0.05%, FIGS. 6A, 6B and 6C), and compound 100 (750 nM, FIGS. 6D, 6E and 6F). After creating the wounds, images were taken at three different time intervals: t=0 hr (FIG. 6A and FIG. 6D), 7 hrs (FIG. 6B and FIG. 6E), and 22 hrs (FIG. 6C and FIG. 6F). Representative images of three independent experiments are shown. The dotted lines indicate the edge of the wound at time zero, and the arrows indicate the area of wound closure.
FIG. 7 depicts wound closure, a direct measure of cell migratory potential, as calculated using the following equation: % Wound Closure=[(At=0h−At=22h)/At=0h]×100%, where At=0h is the area of the wound measured immediately after the scratch, and At=22h is the area of the wound after 22 hrs. The figure represents a statistical analysis by three independent experiments using the unpaired Student's t test. The data were evaluated as the mean±1 standard deviation. The image analysis were performed by ImageJ software.

Structures are written as SMILES. Entries after “also recorded” stand apart in the source; their conditions may differ.

For the molecule `C=CS(=O)(=O)Oc1ccc(Br)cc1` [Precursor 301], the percent inhibition in series [1] stood at 95±3%.
Regarding `CC(C)C[C@@H](/C=C/S(=O)(=O)Oc1ccc(Br)cc1)NC(=O)[C@H](Cc1ccccc1)NC(=O)OCc1ccccc1` [compound 100], the “time to near complete loss of cathepsin L activity” value in [2] (15 nM compound 100) is given as “less than 100 s”. Also, the IC50 in series [2] (human cathepsin L) was determined as 3.6 ± 0.1 nM. For the same molecule, the “RSF (Relative Selectivity Factor)” value in series [2] (kinact (Cathepsin L)/kinact (Cathepsin L)) is given as 1; at Cathepsin K, 100; on Cathepsin B, 44,000; on Cathepsin S, 13. Besides, in series [2] (no significant recovery of activity after very large dilution), the mode of inhibition entry was “irreversible”. In addition, the reactivity result on Cathepsin D, at Cathepsin G, at hPTP1B and in the series with Trypsin was “no reactivity” in each case. The cell permeability result in series [3] is “cell permeable”. Also, the “intracellular substrate turnover (green fluorescence)” value in series [3] (750 nM, overnight (22 h), compared to control) is “near complete loss of intracellular substrate turnover; also recorded: significant loss of green fluorescent signal intensity”. Further, the “cell migratory potential (wound closure)” value in series [4] is reported as “reducing cell migratory potential”.
